Laboratory results: patent US20240150321A1, “PYRAZOLYLSULFONAMIDE COMPOUNDS AND THEIR USE IN THERAPY” (HOTSPOT THERAPEUTICS, INC., priority 2022, published 2024)
Like-named read-outs stand apart in the source and are kept apart here.

Experiments:
Avi-tagged FL MALT-1 = Avi-tagged FL MALT-1 (Homo sapiens (Human), UniProt Q9UDY8); experiment: MALT-1 Fluorogenic Peptide Cleavage Assay (MALT1 inhibition assay); type: biochemical; conditions: Ac-LRSR-AMC peptide substrate, 30 min pre-incubation, 90 min reaction at room temperature
Avi-tagged FL MALT-1, sequence (Q9UDY8 whole entry): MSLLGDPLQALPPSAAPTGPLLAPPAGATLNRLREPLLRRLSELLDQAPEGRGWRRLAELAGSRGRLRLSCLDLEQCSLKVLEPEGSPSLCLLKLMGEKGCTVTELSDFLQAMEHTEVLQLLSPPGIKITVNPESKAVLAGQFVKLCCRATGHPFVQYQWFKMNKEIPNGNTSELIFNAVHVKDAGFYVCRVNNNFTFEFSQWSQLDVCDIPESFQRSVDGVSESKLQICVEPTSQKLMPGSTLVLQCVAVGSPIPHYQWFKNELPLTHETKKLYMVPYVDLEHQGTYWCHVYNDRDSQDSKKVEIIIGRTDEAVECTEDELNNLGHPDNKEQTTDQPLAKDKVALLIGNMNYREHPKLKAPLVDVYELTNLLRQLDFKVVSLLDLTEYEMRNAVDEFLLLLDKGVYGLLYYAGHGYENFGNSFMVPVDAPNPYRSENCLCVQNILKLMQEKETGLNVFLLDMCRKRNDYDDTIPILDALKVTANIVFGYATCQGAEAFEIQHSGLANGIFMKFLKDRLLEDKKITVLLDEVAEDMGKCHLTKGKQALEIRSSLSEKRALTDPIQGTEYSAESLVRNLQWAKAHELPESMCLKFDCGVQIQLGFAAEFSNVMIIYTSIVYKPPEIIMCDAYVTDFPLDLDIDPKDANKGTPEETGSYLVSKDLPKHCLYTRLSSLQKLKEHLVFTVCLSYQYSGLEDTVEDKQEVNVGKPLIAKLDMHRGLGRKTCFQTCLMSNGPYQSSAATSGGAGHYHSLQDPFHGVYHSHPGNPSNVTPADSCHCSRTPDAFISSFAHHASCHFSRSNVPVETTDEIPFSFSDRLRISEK
In short: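 Full-length Avi-tagged human MALT-1 (40 nM working stock) pre-incubated 30 min at RT with compound in 25 mM HEPES pH 6.89, 660 mM sodium citrate, 1 mM TCEP, […], 0.05% CHAPS, 2% DMSO. Ac-LRSR-AMC added at Km (50 μM working stock) or 10×Km (280 μM working stock); 90 min at RT, AMC fluorescence (ex 342/em 441 nm), IC50 from % inhibition curves.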

[1] = tested on: NF-kB reporter in Jurkat cells; experiment: NF-kB reporter assay in Jurkat cells stimulated with aCD3/aCD28/PMA; type: cell-based; conditions: read-out: NF-kB Reporter Assay IC50
In short: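 Jurkat cells (25,000/well, serum-free RPMI) were pre-incubated 1 h at 37° C with serially diluted compound, then stimulated 4 h with aCD3/aCD28/PMA at final […]. NF-kB reporter activity was read by One-Glo luminescence; IC50 values reported.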

[2] = Homo sapiens, Jurkat cells, 1 hr compound pre-incubation, aCD3/aCD28/PMA stimulation 4 hr, One-Glo readout
[3] = Jurkat cells, 1 hr compound pre-incubation, aCD3/aCD28/PMA stimulation 4 hr, One-Glo readout

Cn1ncc2cccc(NS(=O)(=O)c3cnn(-c4cc(N5CC6(CC6)C5)ccn4)c3)c21 [Compound I-368, 1-(4-{5-azaspiro[2.3]hexan-5-yl}pyridin-2-yl)-N-(1-methylindazol-7-yl)pyrazole-4-sulfonamide]
IC50 (Avi-tagged FL MALT-1): > 2500 nM
IC50 [1, 2]: < 400 nM

COc1ccc2cnn(C)c2c1NS(=O)(=O)c1cnn(-c2cc(N3CC(C)C3)ccn2)c1 [Compound I-369]
IC50 (Avi-tagged FL MALT-1): > 2500 nM
IC50 [1, 2]: < 400 nM

COc1ccc2cnn(C)c2c1NS(=O)(=O)c1cnn(-c2cc(N3CC(C)(C)C3)ccn2)c1 [Compound I-370, 1-[4-(3,3-dimethylazetidin-1-yl)pyridin-2-yl]-N-(6-methoxy-1-methylindazol-7-yl)pyrazole-4-sulfonamide]
IC50 (Avi-tagged FL MALT-1): > 2500 nM
IC50 [1, 2]: < 400 nM

COc1ccc2cnn(C)c2c1NS(=O)(=O)c1cnn(-c2cc(N3CC4(CC4)C3)ccn2)c1 [Compound I-371, 1-(4-(5-azaspiro[2.3]hexan-5-yl)pyridin-2-yl)-N-(6-methoxy-1-methyl-1H-indazol-7-yl)-1H-pyrazole-4-sulfonamide]
IC50 (Avi-tagged FL MALT-1): > 2500 nM
IC50 [1, 2]: < 400 nM

COc1ccc2cnn(C)c2c1NS(=O)(=O)c1cnn(-c2cc(N3CCCCC3)ccn2)c1 [Compound I-372]
IC50 (Avi-tagged FL MALT-1): 1000 to 2500 nM
IC50 [1, 2]: < 400 nM

COc1ccc2cnn(C)c2c1NS(=O)(=O)c1cnn(-c2cc(N3CCC3)ccn2)c1 [Compound I-373, 1-(4-(azetidin-1-yl)pyridin-2-yl)-N-(6-methoxy-1-methyl-1H-indazol-7-yl)-1H-pyrazole-4-sulfonamide]
IC50 (Avi-tagged FL MALT-1): ≤ 400 nM
IC50 ([1]; Homo sapiens, Jurkat): < 400 nM

Cn1ncc2cccc(NS(=O)(=O)c3cnn(-c4cc(C5CC(O)C5)ccn4)c3)c21 (stereo not drawn) [Compound I-374, 1-(4-(3-hydroxycyclobutyl)pyridin-2-yl)-N-(1-methyl-1H-indazol-7-yl)-1H-pyrazole-4-sulfonamide]
IC50 (Avi-tagged FL MALT-1): > 2500 nM
IC50 [1, 2]: < 400 nM

Cn1ncc2cccc(NS(=O)(=O)c3cnn(-c4cc(N5CC6CC6C5)ccn4)c3)c21 (stereo not drawn) [Compound I-375, 1-(4-(3-Azabicyclo[3.1.0]Hexan-3-yl)Pyridin-2-yl)-N-(1-Methyl-1H-Indazol-7-yl)-1H-Pyrazole-4-Sulfonamide]
IC50 (Avi-tagged FL MALT-1): > 2500 nM
IC50 [1, 2]: < 400 nM

Cn1ncc2cccc(NS(=O)(=O)c3cnn(-c4cc(C5(F)CC(F)C5)ccn4)c3)c21 (stereo not drawn) [Compound I-376, 1-(4-(1,3-difluorocyclobutyl)pyridin-2-yl)-N-(1-methyl-1H-indazol-7-yl)-1H-pyrazole-4-sulfonamide]
IC50 (Avi-tagged FL MALT-1): > 2500 nM
IC50 [1, 3]: < 400 nM

O=S(=O)(c1cnn(-c2cc(C(F)(F)F)ccn2)c1)N1CCCn2ncc3cccc1c32 [Compound I-379, 1-((1-(4-(trifluoromethyl)pyridin-2-yl)-1H-pyrazol-4-yl)sulfonyl)-1,2,3,4-tetrahydro-[1,4]diazepino[3,2,1-hi]indazole]
IC50 (Avi-tagged FL MALT-1): > 2500 nM
IC50 ([1]; Homo sapiens, Jurkat): > 2500 nM

[2H]c1nn(C([2H])([2H])[2H])c2c(NS(=O)(=O)c3cnn(-c4cc(C(C)(F)F)ccn4)c3)cccc12 [Compound I-380, 1-(4-(1,1-difluoroethyl)pyridin-2-yl)-N-(1-(methyl-d3)-1H-indazol-7-yl-3-d)-1H-pyrazole-4-sulfonamide]
IC50 (Avi-tagged FL MALT-1): 1000 to 2500 nM
IC50 [1, 2]: < 400 nM

COc1ccc2cnn(C)c2c1NS(=O)(=O)c1cnn(-c2cc(N3CCCC3)ccn2)c1 [Compound I-381, N-(6-methoxy-1-methylindazol-7-yl)-1-[4-(pyrrolidin-1-yl)pyridin-2-yl]pyrazole-4-sulfonamide]
IC50 (Avi-tagged FL MALT-1): 400 to 1000 nM
IC50 [1, 2]: < 400 nM

Cn1ncc2cccc(NS(=O)(=O)c3cnn(-c4cc(C(C)(C)C#N)ccn4)c3)c21 [Compound I-382, 1-(4-(2-cyanopropan-2-yl)pyridin-2-yl)-N-(1-methyl-1H-indazol-7-yl)-1H-pyrazole-4-sulfonamide]
IC50 (Avi-tagged FL MALT-1): > 2500 nM
IC50 [1, 2]: < 400 nM

Cn1ncc2cccc(NS(=O)(=O)c3cnn(-c4cc(C5(F)CC(F)(F)C5)ccn4)c3)c21 [Compound I-383, N-(1-methylindazol-7-yl)-1-[4-(1,3,3-trifluorocyclobutyl)pyridin-2-yl]pyrazole-4-sulfonamide]
IC50 (Avi-tagged FL MALT-1): > 2500 nM
IC50 [1, 2]: < 400 nM

COc1ccc2cnn(C)c2c1NS(=O)(=O)c1cnn(-c2cc(N3CCOCC3)ccn2)c1 [Compound I-384]
IC50 (Avi-tagged FL MALT-1): > 2500 nM
IC50 [1, 2]: < 400 nM

COc1ncc2cnn(C)c2c1NS(=O)(=O)c1cnn(-c2cc(N3CC(C)(C)C3)ccn2)c1 [Compound I-385]
IC50 (Avi-tagged FL MALT-1): > 2500 nM
IC50 [1, 2]: < 400 nM

COc1ncc2cnn(C)c2c1NS(=O)(=O)c1cnn(-c2cc(N3CC4(CC4)C3)ccn2)c1 [Compound I-386, 1-(4-(5-azaspiro[2.3]hexan-5-yl)pyridin-2-yl)-N-(6-methoxy-1-methyl-1H-pyrazolo[4,3-c]pyridin-7-yl)-1H-pyrazole-4-sulfonamide]
IC50 (Avi-tagged FL MALT-1): > 2500 nM
IC50 [1, 2]: < 400 nM

COc1ncc2cnn(C)c2c1NS(=O)(=O)c1cnn(-c2cc(N3CCCCC3)ccn2)c1 [Compound I-387, N-(6-methoxy-1-methyl-1H-pyrazolo[4,3-c]pyridin-7-yl)-1-(4-(piperidin-1-yl)pyridin-2-yl)-1H-pyrazole-4-sulfonamide]
IC50 (Avi-tagged FL MALT-1): > 2500 nM
IC50 [1, 2]: < 400 nM

COc1ncc2cnn(C)c2c1NS(=O)(=O)c1cnn(-c2cc(N3CCC3)ccn2)c1 [Compound I-388, 1-[4-(azetidin-1-yl)pyridin-2-yl]-N-{6-methoxy-1-methylpyrazolo[4,3-c]pyridin-7-yl}pyrazole-4-sulfonamide]
IC50 (Avi-tagged FL MALT-1): 400 to 1000 nM
IC50 [1, 2]: < 400 nM

Cn1ncc2cccc(NS(=O)(=O)c3cnn(-c4cc(N5CC6CC(C6)C5)ccn4)c3)c21 [Compound I-389, 1-(4-(3-Azabicyclo[3.1.1]Heptan-3-yl)Pyridin-2-yl)-N-(1-Methyl-1H-Indazol-7-yl)-1H-Pyrazole-4-Sulfonamide]
IC50 (Avi-tagged FL MALT-1): > 2500 nM
IC50 [1, 2]: < 400 nM

CC1CCN(c2ccnc(-n3cc(S(=O)(=O)Nc4cccc5cnn(C)c45)cn3)c2)CC1 [Compound I-390, N-(1-methylindazol-7-yl)-1-[4-(4-methylpiperidin-1-yl)pyridin-2-yl]pyrazole-4-sulfonamide]
IC50 (Avi-tagged FL MALT-1): > 2500 nM
IC50 [1, 2]: < 400 nM

Cn1ncc2cccc(NS(=O)(=O)c3cnn(-c4cc(N5CCCCCC5)ccn4)c3)c21 [Compound I-391, 1-[4-(azepan-1-yl)pyridin-2-yl]-N-(1-methylindazol-7-yl)pyrazole-4-sulfonamide]
IC50 (Avi-tagged FL MALT-1): > 2500 nM
IC50 [1, 2]: < 400 nM

COc1ccc2cnn(C)c2c1NS(=O)(=O)c1cnn(-c2cc(N3CCCCCC3)ccn2)c1 [Compound I-392]
IC50 (Avi-tagged FL MALT-1): > 2500 nM
IC50 [1, 2]: < 400 nM

O=S(=O)(c1cnn(-c2cc(C(F)(F)F)ccn2)c1)N1CCCc2ccc3cn[nH]c3c21 [Compound I-393, 9-((1-(4-(trifluoromethyl)pyridin-2-yl)-1H-pyrazol-4-yl)sulfonyl)-6,7,8,9-tetrahydro-1H-pyrazolo[4,3-h]quinoline]
IC50 (Avi-tagged FL MALT-1): > 2500 nM
IC50 [1, 2]: > 2500 nM

CC1CC(F)(c2ccnc(-n3cc(S(=O)(=O)Nc4cccc5cnn(C)c45)cn3)c2)C1 (stereo not drawn) [Compound I-394]
IC50 (Avi-tagged FL MALT-1): > 2500 nM
IC50 [1, 2]: < 400 nM

CC1CC(F)(c2ccnc(-n3cc(S(=O)(=O)Nc4cccc5cnn(C)c45)cn3)c2)C1 (stereo not drawn) [Compound I-395, 1-(4-(1-fluoro-3-methylcyclobutyl)pyridin-2-yl)-N-(1-methyl-1H-indazol-7-yl)-1H-pyrazole-4-sulfonamide]
IC50 (Avi-tagged FL MALT-1): > 2500 nM
IC50 [1, 3]: < 400 nM

O=S(=O)(c1cnn(-c2cc(C(F)(F)F)ccn2)c1)N1CCCCn2ncc3cccc1c32 [Compound I-396, 1-((1-(4-(trifluoromethyl)pyridin-2-yl)-1H-pyrazol-4-yl)sulfonyl)-2,3,4,5-tetrahydro-1H-[1,4]diazocino[3,2,1-hi]indazole]
IC50 (Avi-tagged FL MALT-1): > 2500 nM
IC50 ([1]; Homo sapiens, Jurkat): > 2500 nM

COc1ncc2cnn(C)c2c1NS(=O)(=O)c1cnn(-c2cc(N3CC(C)C3)ccn2)c1 [Compound I-397]
IC50 (Avi-tagged FL MALT-1): 1000 to 2500 nM
IC50 [1, 2]: < 400 nM

COc1ncc2cnn(C)c2c1NS(=O)(=O)c1cnn(-c2cc(N3CCCC3)ccn2)c1 [Compound I-398, N-{6-methoxy-1-methylpyrazolo[4,3-c]pyridin-7-yl}-1-[4-(pyrrolidin-1-yl)pyridin-2-yl]pyrazole-4-sulfonamide]
IC50 (Avi-tagged FL MALT-1): 400 to 1000 nM
IC50 [1, 2]: < 400 nM

COC1CC(c2ccnc(-n3cc(S(=O)(=O)Nc4cccc5cnn(C)c45)cn3)c2)C1 (stereo not drawn) [Compound I-399, 1-(4-(3-methoxycyclobutyl)pyridin-2-yl)-N-(1-methyl-1H-indazol-7-yl)-1H-pyrazole-4-sulfonamide]
IC50 (Avi-tagged FL MALT-1): > 2500 nM
IC50 [1, 2]: < 400 nM

C[C@H]1CCN(c2ccnc(-n3cc(S(=O)(=O)Nc4cccc5cnn(C)c45)cn3)c2)C1 [Compound I-400, N-(1-methylindazol-7-yl)-1-{4-[(3S)-3-methylpyrrolidin-1-yl]pyridin-2-yl} pyrazole-4-sulfonamide]
IC50 (Avi-tagged FL MALT-1): > 2500 nM
IC50 [1, 2]: < 400 nM

C[C@@H]1CCN(c2ccnc(-n3cc(S(=O)(=O)Nc4cccc5cnn(C)c45)cn3)c2)C1 [Compound I-401, N-(1-methylindazol-7-yl)-1-{4-[(3R)-3-methylpyrrolidin-1-yl]pyridin-2-yl}pyrazole-4-sulfonamide]
IC50 (Avi-tagged FL MALT-1): > 2500 nM
IC50 [1, 2]: < 400 nM

COc1ccc2cnn(C)c2c1NS(=O)(=O)c1cnn(-c2cc(N3CC[C@H](C)C3)ccn2)c1 [Compound I-402]
IC50 (Avi-tagged FL MALT-1): > 2500 nM
IC50 [1, 2]: < 400 nM
